According to ChEMBL document CHEMBL1156824, “Physicochemical space for optimum oral bioavailability: contribution of human intestinal absorption and first-pass elimination” (J Med Chem, 2010):

Legend:
Homo sapiens [1] = species on record: Homo sapiens; experiment: Fraction escaping hepatic elimination in human; details: in vivo
[2] = Volume of distribution at steady state in human; details: in vivo
Homo sapiens [3] = experiment: Oral bioavailability in human; details: in vivo
Homo sapiens [4] = species on record: Homo sapiens; experiment: Hepatic clearance in human; details: in vivo
clinical = details: human, in vivo

Row | Compound | Fh (Homo sapiens [1]) | Vd [2] [L/kg] | F_fraction (Homo sapiens [3]) | CL (Homo sapiens [4]) [mL/min/kg] | CL renal (clinical) [mL/min/kg]
1 | CC(C)(C)NCC(O)c1ccc(O)c(CO)c1 (stereo not drawn) [ALBUTEROL] | 0.88 |  |  |  | 
2 | COC(=O)C1=C(C)NC(C)=C(C(=O)OCCN(C)Cc2ccccc2)C1c1cccc([N+](=O)[O-])c1 (stereo not drawn) [NICARDIPINE] |  | 1 |  |  | 
3 | C[C@@H]1CN(c2c(F)c(N)c3c(=O)c(C(=O)O)cn(C4CC4)c3c2F)C[C@H](C)N1 [SPARFLOXACIN] |  |  | 0.92 | 2.3 | 
4 | O=C(O)Cc1ccccc1Nc1c(Cl)cccc1Cl [DICLOFENAC] | 0.85 |  |  | 3.5 | 0.035
5 | COc1ccc2[nH]c([S+]([O-])Cc3ncc(C)c(OC)c3C)nc2c1 (stereo not drawn) [OMEPRAZOLE] |  |  | 0.53 | 8.3 | 0.1
6 | Cc1ccc(-c2nc3ccc(C)cn3c2CC(=O)N(C)C)cc1 [ZOLPIDEM] |  |  | 0.72 | 4.3 | 0.043
7 | CC(C)NCC(O)c1ccc(NS(C)(=O)=O)cc1 (stereo not drawn) [SOTALOL] |  |  | 0.95 | 0.3 | 
8 | O=C(c1ccc(F)cc1)C1CCN(CCn2c(=O)[nH]c3ccccc3c2=O)CC1 [KETANSERIN] |  |  | 0.5 | 6.6 | 0.1
9 | COc1ccc(C(CN(C)C)C2(O)CCCCC2)cc1 (stereo not drawn) [VENLAFAXINE] |  |  | 0.42 | 13.4 | 0.6
10 | COc1ccc(C(=O)Nc2ccccc2CCC2CCCCN2C)cc1 (stereo not drawn) [ENCAINIDE] |  |  | 0.3 | 12.2 | 0.8
11 | Cc1c(OCC(F)(F)F)ccnc1C[S+]([O-])c1nc2ccccc2[nH]1 (stereo not drawn) [LANSOPRAZOLE] |  |  | 0.85 | 4.4 | 0.044
12 | COc1cccc2c1C(=O)c1c(O)c3c(c(O)c1C2=O)C[C@@](O)(C(=O)CO)C[C@@H]3O[C@H]1C[C@H](N)[C@H](O)[C@H](C)O1 [DOXORUBICIN] |  |  | 0.05 | 13.2 | 
13 | CNC(=C[N+](=O)[O-])NCCSCc1csc(CN(C)C)n1 [NIZATIDINE] |  | 1 |  | 2.5 | 
14 | Nc1ccc(S(=O)(=O)c2ccc(N)cc2)cc1 [DAPSONE] | 0.98 |  |  | 0.4 | 
15 | CCc1nn(CCCN2CCN(c3cccc(Cl)c3)CC2)c(=O)n1CCOc1ccccc1 [NEFAZODONE] |  |  | 0.19 | 7.1 | 0.4
16 | CC(C)n1c(/C=C/C(O)CC(O)CC(=O)O)c(-c2ccc(F)cc2)c2ccccc21 (stereo not drawn) [FLUVASTATIN] | 0.3 |  |  |  | 
17 | Nc1ccn([C@H]2CC[C@@H](CO)O2)c(=O)n1 [ZALCITABINE] | 0.95 |  |  | 1.1 | 4.5
18 | CCCCc1nc(Cl)c(CO)n1Cc1ccc(-c2ccccc2-c2nn[nH]n2)cc1 [LOSARTAN] |  |  | 0.36 | 7.3 | 
19 | Nc1nc2c(ncn2CCC(CO)CO)c(=O)[nH]1 [PENCICLOVIR] |  |  | 0.05 | 1.7 | 
20 | CCCc1nc2c(C)cc(-c3nc4ccccc4n3C)cc2n1Cc1ccc(-c2ccccc2C(=O)O)cc1 |  |  | 0.43 | 8.3 | 0.1
21 | CCCc1nc(C)c2c(=O)[nH]c(-c3cc(S(=O)(=O)N4CCN(CC)CC4)ccc3OCC)nn12 |  | 3 |  |  | 
22 | NCC1(CC(=O)O)CCCCC1 [GABAPENTIN] |  |  | 0.6 |  | 

Row | Compound | Fh (Homo sapiens [1]) | Vd [2] [L/kg] | F_fraction (Homo sapiens [3]) | CL (Homo sapiens [4]) [mL/min/kg] | CL renal (clinical) [mL/min/kg]
23 | Nc1c(CC(=O)O)cccc1C(=O)c1ccc(Br)cc1 [BROMFENAC] |  |  | 0.67 | 1.3 | 0.0022
24 | N[C@@H](C(=O)N[C@@H]1C(=O)N2C(C(=O)O)=C(CSc3c[nH]nn3)CS[C@H]12)c1ccc(O)cc1 [CEFATRIZINE] |  |  | 0.75 | 0.7 | 
25 | CC[C@H]1OC(=O)[C@H](C)[C@@H](O[C@H]2C[C@@](C)(OC)[C@@H](O)[C@H](C)O2)[C@H](C)[C@@H](O[C@@H]2O[C@H](C)C[C@H](N(C)C)[C@H]2O)[C@](C)(O)C[C@@H](C)C(=O)[C@H](C)[C@@H](O)[C@]1(C)O [ERYTHROMYCIN] |  |  | 0.35 | 5.3 | 0.3
26 | CCCCNC(=O)NS(=O)(=O)c1ccc(C)cc1 [TOLBUTAMIDE] | 0.99 |  |  |  | 0.0002
27 | CCCC(=O)Nc1ccc(OCC(O)CNC(C)C)c(C(C)=O)c1 (stereo not drawn) [ACEBUTOLOL] |  |  | 0.5 |  | 
28 | CCN1CCCC1CNC(=O)c1cc(S(=O)(=O)CC)c(N)cc1OC (stereo not drawn) [AMISULPRIDE] |  | 5.8 |  | 3.4 | 
29 | COC(=O)C1=C(C)NC(C)=C(C(=O)OC)C1c1ccccc1[N+](=O)[O-] [NIFEDIPINE] |  |  | 0.5 |  | 
30 | C[C@H]1COc2c(N3CCN(C)CC3)c(F)cc3c(=O)c(C(=O)O)cn1c23.C[C@H]1COc2c(N3CCN(C)CC3)c(F)cc3c(=O)c(C(=O)O)cn1c23.O [LEVOFLOXACIN] |  |  | 0.99 | 0.5 | 
31 | Cc1nc2n(c(=O)c1CCN1CCC(c3noc4cc(F)ccc34)CC1)CCCC2 [RISPERIDONE] |  |  | 0.66 |  | 0.2
32 | CC(=O)N[C@H]1[C@H]([C@H](O)[C@H](O)CO)OC(C(=O)O)=C[C@@H]1N=C(N)N [ZANAMIVIR] |  |  | 0.03 | 0.2 | 
33 | CCOC(=O)C1=C(C)NC(C)=C(C(=O)OC)C1c1cccc(Cl)c1Cl (stereo not drawn) [FELODIPINE] |  |  | 0.16 |  | 
34 | CN1Cc2c(N)cccc2C(c2ccccc2)C1 (stereo not drawn) [NOMIFENSINE] |  | 6 |  | 9.5 | 
35 | CCOc1ccccc1OC(c1ccccc1)C1CNCCO1 (stereo not drawn) [REBOXETINE] |  |  | 0.95 | 0.8 | 0.041
36 | CCCN(CCC)S(=O)(=O)c1ccc(C(=O)O)cc1 [PROBENECID] |  |  | 1 | 0.2 | 
37 | O=C1C(CC[S+]([O-])c2ccccc2)C(=O)N(c2ccccc2)N1c1ccccc1 (stereo not drawn) [SULFINPYRAZONE] |  |  | 0.93 |  | 
38 | O=[N+]([O-])O[C@@H]1CO[C@H]2[C@@H]1OC[C@@H]2O [ISOSORBIDE MONONITRATE] |  | 0.7 |  | 1.9 | 
39 | C[C@H](CS)C(=O)N1CCC[C@H]1C(=O)O [CAPTOPRIL] |  |  | 0.62 |  | 
40 | CC(C)c1nc(N(C)S(C)(=O)=O)nc(-c2ccc(F)cc2)c1/C=C/[C@@H](O)C[C@@H](O)CC(=O)O [ROSUVASTATIN] |  |  | 0.2 | 7.7 | 
41 | CCOc1ccccc1OCCN[C@H](C)Cc1ccc(OC)c(S(N)(=O)=O)c1 [TAMSULOSIN] |  |  | 1 | 0.5 | 0.1
42 | CN(C)c1ccc(O)c2c1C[C@H]1C[C@H]3[C@H](N(C)C)C(O)=C(C(N)=O)C(=O)[C@@]3(O)C(O)=C1C2=O [MINOCYCLINE] |  |  | 1 | 1.1 | 0.1
43 | CN(C)C(=N)N=C(N)N [METFORMIN] | 1 |  |  |  | 
44 | CC[C@H]1OC(=O)[C@H](C)[C@@H](O[C@H]2C[C@@](C)(OC)[C@@H](O)[C@H](C)O2)[C@H](C)[C@@H](O[C@@H]2O[C@H](C)C[C@H](N(C)C)[C@H]2O)[C@](C)(O)C[C@@H](C)CN(C)[C@H](C)[C@@H](O)[C@]1(C)O [AZITHROMYCIN] |  |  | 0.34 | 9.6 | 0.5

Row | Compound | Fh (Homo sapiens [1]) | Vd [2] [L/kg] | F_fraction (Homo sapiens [3]) | CL (Homo sapiens [4]) [mL/min/kg] | CL renal (clinical) [mL/min/kg]
45 | Nc1nc(=O)[nH]cc1F [FLUCYTOSINE] |  |  | 0.84 | 0.02 | 
46 | CNCCCN1c2ccccc2CCc2ccccc21 [DESIPRAMINE] | 0.53 |  | 0.4 |  | 
47 | CNS(=O)(=O)Cc1ccc2[nH]cc(CCN(C)C)c2c1 |  |  | 0.14 | 15.3 | 
48 | CC(=O)Nc1ccc(O)cc1 [ACETAMINOPHEN] |  | 1 |  |  | 
49 | CN(C)Cc1nnc2n1-c1ccc(Cl)cc1C(c1ccccc1)=NC2 [ADINAZOLAM] |  |  | 0.39 | 3.6 | 
50 | CC(C)(C)NC(=O)[C@@H]1C[C@@H]2CCCC[C@@H]2CN1C[C@@H](O)[C@H](Cc1ccccc1)NC(=O)[C@H](CC(N)=O)NC(=O)c1ccc2ccccc2n1 | 0.45 |  |  |  | 
51 | O=C(c1ccccc1)c1ccc2n1CCC2C(=O)O (stereo not drawn) [KETOROLAC] |  |  | 1 | 0.2 | 
52 | CN1CCN(c2c(F)cc3c(=O)c(C(=O)O)cn(CCF)c3c2F)CC1 [FLEROXACIN] |  | 1.3 |  | 0.9 | 
53 | CO[C@H]1/C=C/O[C@@]2(C)Oc3c(C)c(O)c4c(c3C2=O)C2=NC3(CCN(CC(C)C)CC3)NC2=C(NC(=O)/C(C)=C\C=C\[C@H](C)[C@H](O)[C@@H](C)[C@@H](O)[C@@H](C)[C@H](OC(C)=O)[C@@H]1C)C4=O [RIFABUTIN] | 0.91 |  | 0.2 | 2 | 
54 | CC(C)Cc1ccc(C(C)C(=O)O)cc1 (stereo not drawn) [IBUPROFEN] |  |  | 0.95 |  | 
55 | Cc1cccc(Nc2ccncc2S(=O)(=O)NC(=O)NC(C)C)c1 [TORSEMIDE] |  |  |  | 0.4 | 0.1
56 | COC(=O)Nc1nc2ccc(C(=O)c3ccccc3)cc2[nH]1 [MEBENDAZOLE] |  |  |  | 14.8 | 0.2
57 | O=C(O)P(=O)(O)O [FOSCARNET] |  | 0.5 |  | 0.4 | 
58 | NS(=O)(=O)c1cc(C2(O)NC(=O)c3ccccc32)ccc1Cl (stereo not drawn) [CHLORTHALIDONE] |  |  |  | 0.5 | 1
59 | CC(C)(O)c1ccccc1CC[C@@H](SCC1(CC(=O)O)CC1)c1cccc(/C=C/c2ccc3ccc(Cl)cc3n2)c1 [MONTELUKAST] |  |  |  | 0.7 | 0.0014
60 | C=CC1=C(C(=O)O)N2C(=O)[C@@H](NC(=O)/C(=N\OCC(=O)O)c3csc(N)n3)[C@H]2SC1 [CEFIXIME] |  |  | 0.47 | 0.6 | 0.4
61 | CC1CCCC(C)N1CCCC(O)(c1ccccc1)c1ccccn1 (stereo not drawn) [PIRMENOL] |  |  |  | 1.1 | 0.7
62 | O=C(NCCNCC(O)COc1ccc(O)cc1)N1CCOCC1 (stereo not drawn) [XAMOTEROL] |  |  | 0.05 | 1.1 | 
63 | CC[C@H](C)C(=O)O[C@H]1C[C@@H](C)C=C2C=C[C@H](C)[C@H](CC[C@@H]3C[C@@H](O)CC(=O)O3)[C@H]21 [LOVASTATIN] | 0.72 |  |  | 6.5 | 0.7
64 | CCS(=O)(=O)CCn1c([N+](=O)[O-])cnc1C [TINIDAZOLE] |  |  |  | 0.5 | 0.1
